Test results reported in publication PMC5766898, “Eel Kisspeptins: Identification, Functional Activity, and Inhibition on both Pituitary LH and GnRH Receptor Expression” (Frontiers in Endocrinology, 2018).
“Also recorded” adds a separate entry of the source. Like-named read-outs stand apart in the source and are kept apart here. Ends that are not written are not given here.

How the values were obtained:
KissR-3 = conditions: cited from earlier work
Excerpt: (§1) For clarity, the nomenclature of Pasquier et al ([19], [24]) for KissR will be used in the following paragraphs. In teleost models with two receptors, various studies have shown differential affinities of Kiss peptides toward homologous receptors.

[1] = tested on: lhβ expression by eel pituitary cells; conditions: eel pituitary cells in primary culture; cited from earlier work
Excerpt: In the eel, three Kiss receptor genes have been characterized, i.e., KissR-1, KissR-2, and KissR-3 ([19], [22]–[24]). Their expressions mainly occur in the brain, pituitary, and gonads ([19]).

[2] = tested on: fshβ expression by eel pituitary cells; conditions: eel pituitary cells in primary culture; cited from earlier work
KissR-2 = conditions: cited from earlier work
Excerpt: as §1

pituitary gnrh-r mRNAs = conditions: female striped bass at dummy run phase, chronic administration in vivo; cited from earlier work
Excerpt: This receptor is the one increased during experimental maturation in both female and male eels ([25]). To the best of our knowledge, only a single other study investigated the effect of kisspeptin on GnRH receptor in teleost. In female striped bass at dummy run phase (ovarian development is initiated but not completed), chronic administration in vivo of both Kp1(15) and Kp2(12) induces a decrease ...

FSH peptide secretion = conditions: striped bass; cited from earlier work
Excerpt: (§2) This paradoxical inhibitory effect contrasts with the general action of kisspeptin as an activator of puberty and reproduction, mostly at the brain level ([70]), but also directly on the pituitary [for reviews see Ref. ([71], [72])]. […] In contrast, in other studied teleosts, the action of kisspeptin is generally ...

LH release = conditions: cited from earlier work
Excerpt: as §2

plasma LH levels = conditions: striped bass, im, cited from earlier work
Excerpt: as §2

FSH gene transcription = conditions: striped bass; cited from earlier work
Excerpt: as §2

[3] = tested on: LH release by pituitary cells; conditions: cited from earlier work
Excerpt: as §2

[4] = tested on: expression of LH by pituitary cells; conditions: goldfish pituitary cells, mixed sexes at late stages of sexual regression; cited from earlier work
Excerpt: as §2

rat KissR-1 = molecular target: T1, rat KissR-1 (Rattus norvegicus, UniProt Q924U1); assay: [Ca^2+]i response (Fluo-4 AM, FlexStation) in rat KissR-1-transfected CHO-K1 cells; type: cell-based; conditions: rat KissR-1 CHO-K1 cells, peak Fluo-4 fluorescence, 10^−12 to 10^−6 M, 37°C, four-parameter logistic, mean ± SEM from two independent experiments; for Emax: baseline normalized to 100%, 180 s recording
T1 construct: expressed in transfected cells
T1 sequence (Q924U1 whole entry): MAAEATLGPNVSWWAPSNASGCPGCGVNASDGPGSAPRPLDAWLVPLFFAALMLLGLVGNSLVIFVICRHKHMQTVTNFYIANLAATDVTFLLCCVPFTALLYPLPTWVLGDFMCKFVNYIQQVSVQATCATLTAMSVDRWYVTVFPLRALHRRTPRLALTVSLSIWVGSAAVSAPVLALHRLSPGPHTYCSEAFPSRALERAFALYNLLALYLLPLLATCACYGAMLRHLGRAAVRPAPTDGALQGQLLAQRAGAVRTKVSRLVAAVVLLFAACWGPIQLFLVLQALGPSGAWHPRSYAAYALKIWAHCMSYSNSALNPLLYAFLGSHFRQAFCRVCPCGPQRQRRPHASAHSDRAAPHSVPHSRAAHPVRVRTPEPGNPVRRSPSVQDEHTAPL
Experimental: CHO-K1 cells were cultured to semiconfluence in 12-well plates using Ham’s F12 medium supplemented with 10% fetal bovine serum and 1% antibiotic–antimycotic solution. Cells were transfected with different quantities of the recombinant plasmid, ranging from 3 to 5 µg, using Lipofectamine 2000 (Invitrogen, Cergy Pontoise, France) as previously described ([30]). Twenty-four hours after transfection, media were replaced by fresh F12 medium containing 1 mg/ml G418 (Geneticin; Life Technologies, Inc.). One week later, surviving cells were detached, diluted, and plated on 96-well plates at 0.7 cells/well. Monoclonal cell lines expressing rat KissR-1 (CHO-K1-rKissR-1) were followed daily by contrast phase microscopy. Seven independent monoclonal stable cell lines were obtained after a 3-week period of selection. By using qPCR, two cell lines were selected based on their expression levels being closest to physiological levels among all cell lines.
To compare the KissR-1 agonistic activities of eel Kp1(10), Kp2(10), Kp1(15), and Kp2(12), the level of [Ca^2+]i after stimulation of CHO-K1 cells stably expressing KissR-1 by these peptides was monitored by spectrofluorometry as previously described ([30], [31]) with slight modifications. Briefly, after 24 h in culture, cells were incubated for 1 h in a humidified incubator (37°C, 5% CO2) with 2 µM Fluo-4 acetoxymethyl ester (AM) calcium dye (Life Technologies, Saint Aubin, France) in Hank’s Buffer Saline Solution (HBSS; Life Technologies) buffered with 5 mM HEPES and supplemented with 2.5 mM probenecid (Sigma-Aldrich, Saint-Quentin Fallavier, France). Cells were washed twice with HBSS/HEPES/probenecid to remove Fluo-4 AM from the incubation medium and incubated in 150 µl of the same medium at 37°C for 15 min. Fluorescence was recorded using a Flexstation 3 fluorescence plate reader system (Molecular Devices, Saint-Grégoire, France) during 180 s with an excitation wavelength of 480 nm, an emission wavelength of 525 nm, and a cutoff filter of 515 nm. After 15 s recording in basal conditions, 50 µl of graded concentration (10^−12 to 10^−6 M) of different peptides (four-fold final concentration) was added to the incubation medium with the built-in eight-channel pipettor at a rate of 62 µl/s to assess their agonistic activity. After subtraction of mean fluorescence background from control wells without Fluo-4 AM, baseline was normalized to 100%, and fluorescence peak values were determined for each concentration of peptide. Potency (EC50) and efficacy (Emax) (Table 3) were determined with the Prism 6.0 software (GraphPad Software In., La Jolla, CA, USA) using a four-parameter logistic equation to fit peak fluorescence data.

human KissR-1 [5] = tested on: human KissR-1; design: method as in PMID 19164475; conditions: CV-1 cells; cited from earlier work
lh expression = conditions: cited from earlier work
Excerpt: as §2

human KissR-1 [6] = tested on: human KissR-1; design: method as in PMID 26047834; conditions: CHO cells; cited from earlier work
FSH release = conditions: sea bass; cited from earlier work
Excerpt: as §2

human KissR-1 [7] = tested on: human KissR-1; design: method as in PMID 18509165; conditions: COS-7 cells; cited from earlier work
[8] = striped bass, COS-7 cells, Kp1(15) versus Kp2(12)
[9] = pituitary cells from sexually mature female goldfish
[10] = zebrafish, COS-7, CHO-K1, and HEK293 cells
[11] = pituitary cells from mature male sea bass

HQDMSSYNFNSFGLRY [chub mackerel Kp1(16), chub mackerel predicted mature peptide]
activity on KissR-3 (KissR-3; chub mackerel, Kp1(16) versus Kp1(15)): more active than the shorter Kp1(15)

human Kp1(14): heterologous kisspeptin (DLPNYNWNSFGLRF; ends and bridges not checked; UniProt Q15726 108-121, looked up)
effect on lhβ expression, heterologous kisspeptins [1]: can inhibit lhβ expression; also recorded: specific in vitro inhibitory effect | effect on fshβ expression, heterologous kisspeptins [2]: no effect on fshβ

SKFNFNPFGLRF [striped bass Kp2(12), striped bass Kiss peptide]
activation of KissR-2 (KissR-2; striped bass, COS-7 cells, Kp2(12) versus Kp1(15)): more efficiently activated | activation of KissR-3 (KissR-3; [8]): activate KissR-3 with the same potency | effect on pituitary gnrh-r mRNAs (pituitary gnrh-r mRNAs): induces a decrease of pituitary gnrh-r mRNAs | effect on FSH peptide secretion (FSH peptide secretion): stimulate FSH | effect on LH release (LH release; striped bass, in vitro): stimulated LH release | effect on plasma LH levels (plasma LH levels; gonadal recrudescence): could increase LH levels at gonadal recrudescence | effect on plasma LH levels (plasma LH levels; overall): induces plasma LH levels in a stage-dependent manner | effect on FSH gene transcription (FSH gene transcription): stimulate FSH

YNLNSFGLRY [goldfish Kp1(10), homologous goldfish Kp1(10)]
effect on LH release ([3]; goldfish pituitary cells, mixed sexes at late stages of sexual regression): increases the release and expression of LH | effect on LH release [3, 9]: inactive on LH release | effect on LH expression [4]: increases the release and expression of LH

YNWNSFGLRY-NH2 [Eel Kp1(10)]
Emax (rat KissR-1): 236 ± 8.4% | EC50 (rat KissR-1): 8.5 ± 4.5 nM

FNYNPFGLRF [zebrafish Kp2(10), heterologous kisspeptin]
activation of human KissR-1 (human KissR-1 [5]): highly efficient | activation of KissR-2 (KissR-2; [10]): activated by both Kp1(10) and Kp2(10) | effect on lhβ expression, heterologous kisspeptins [1]: can inhibit lhβ expression; also recorded: specific in vitro inhibitory effect | effect on fshβ expression, heterologous kisspeptins [2]: no effect on fshβ

QNVAYYNLNSFGLRY [zebrafish Kp1(15), heterologous kisspeptin]
activation of human KissR-1 (human KissR-1 [5]): highly efficient | preference for KissR-2 (KissR-2; zebrafish, CV-1 cells): preference for KissR-2 | effect on lhβ expression, heterologous kisspeptins [1]: can inhibit lhβ expression; also recorded: specific in vitro inhibitory effect | effect on fshβ expression, heterologous kisspeptins [2]: no effect on fshβ

SKFNRNPFGLRF-NH2 [Eel Kp2(12)]
Emax (rat KissR-1): 256 ± 6.7% | EC50 (rat KissR-1): 135 ± 18.9 nM

SKFNYNPFGLRF [zebrafish Kp2(12), zebrafish Kiss peptide]
activation of human KissR-1 (human KissR-1 [5]): highly efficient | potency for activating KissR-3 (KissR-3; zebrafish, CV-1 cells): higher potency for activating KissR-3

QDVSSYNLNSFGLRY [striped bass Kp1(15), striped bass Kiss peptide]
activation of KissR-3 (KissR-3; [8]): activate KissR-3 with the same potency | effect on pituitary gnrh-r mRNAs (pituitary gnrh-r mRNAs): induces a decrease of pituitary gnrh-r mRNAs | effect on FSH peptide secretion (FSH peptide secretion): stimulate FSH | effect on plasma LH levels (plasma LH levels; gonadal recrudescence): could increase LH levels at gonadal recrudescence | effect on plasma LH levels (plasma LH levels; overall): induces plasma LH levels in a stage-dependent manner | effect on plasma LH levels (plasma LH levels; pubertal stage): no effect on LH at pubertal stage | effect on lh expression (lh expression; striped bass, in vitro): inhibitory effect on lh expression | effect on FSH gene transcription (FSH gene transcription): stimulate FSH

YNLNSFGLRY [sea bass Kp1(10), sea bass Kiss peptide]
activation of human KissR-1 (human KissR-1 [6]): can efficiently activate human KissR-1

FNRNPFGLRF-NH2 [Eel Kp2(10)]
Emax (rat KissR-1): 260 ± 9.5% | EC50 (rat KissR-1): 56.6 ± 27.7 nM

SKFNFNPFGLRF [sea bass Kp2(12), sea bass Kiss peptide]
activation of human KissR-1 (human KissR-1 [6]): can efficiently activate human KissR-1 | potency for activating KissR-3 (KissR-3; sea bass, CHO cells): higher potency for activating KissR-3 | in vitro FSH release (FSH release): can induce in vitro FSH release | effect on LH release (LH release; [11]): induces both lh expression and LH release | effect on lh expression (lh expression; [11]): induces both lh expression and LH release

ENFSSYNWNSFGLRY-NH2 [Eel Kp1(15)]
Emax (rat KissR-1): 277 ± 5.3% | EC50 (rat KissR-1): 11.8 ± 2 nM

FNYNPFGLRF [goldfish Kp2(10), homologous goldfish Kp2(10)]
effect on LH release [3, 9]: inactive on LH release

YNLNSFGLRY [zebrafish Kp1(10), heterologous kisspeptin]
activation of KissR-2 (KissR-2; [10]): activated by both Kp1(10) and Kp2(10) | activation of KissR-3 (KissR-3; [10]): preferentially activated by Kp1(10) | activation of human KissR-1 (human KissR-1 [7]): highly efficient | effect on lhβ expression, heterologous kisspeptins [1]: can inhibit lhβ expression; also recorded: specific in vitro inhibitory effect | effect on fshβ expression, heterologous kisspeptins [2]: no effect on fshβ

QDVSSYNLNSFGLRY [sea bass Kp1(15), sea bass Kiss peptide]
activation of human KissR-1 (human KissR-1 [6]): can efficiently activate human KissR-1 | preference for KissR-2 (KissR-2; sea bass, CHO cells): preference for KissR-2 | effect on LH release (LH release; [11]): no effect | effect on lh expression (lh expression; [11]): no effect
